Data from ChEMBL document CHEMBL1201862, “PubChem BioAssay data set” (2004).
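Growth conditions: 96-well plates. Treatment: test compound, 48 hours, 5 concentrations. Analysis: linear interpolation between bracketing concentrations; unreached endpoints set to highest concentration. GI50 = concentration required for 50% inhibition of growth.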 Activity calls are given as the source filed them. Rule as the data show it: active = GI50 up to about 1.1 µM and inactive = higher.

How the values were obtained:
Experiment in all cases: NCI tumour cell line growth inhibition, 48 h
[1] = tested on: OVCAR-8
[2] = tested on: LXFL 529
[3] = tested on: OVCAR-5
[4] = tested on: OVCAR-4
[5] = tested on: SK-OV-3
[6] = tested on: NCI-H23
[7] = tested on: SF-268
[8] = tested on: NCI-H522
[9] = tested on: HT-29
[10] = tested on: HCT-116
[11] = tested on: TK-10
[12] = tested on: MOLT-4
[13] = tested on: SF-539
[14] = tested on: DMS-273
[15] = tested on: HL-60
[16] = tested on: SNB-19
[17] = tested on: HOP-62
[18] = tested on: M14
[19] = tested on: DLD-1
[20] = tested on: CAKI-1
[21] = tested on: COLO 205
[22] = tested on: KM-20L2
[23] = tested on: HCT-15
[24] = tested on: XF498
[25] = tested on: HOP-18
[26] = tested on: A549
[27] = tested on: 786-0
[28] = tested on: U-251
[29] = tested on: UACC-62
[30] = tested on: HOP-92
[31] = tested on: KM12
[32] = tested on: SK-MEL-28
[33] = tested on: IGROV-1
[34] = tested on: M19-MEL
[35] = tested on: HCC 2998
[36] = tested on: SF-295
[37] = tested on: EKVX
[38] = tested on: SNB-75
[39] = tested on: SK-MEL-2
[40] = tested on: UACC-257
[41] = tested on: ACHN
[42] = tested on: DMS-114
[43] = tested on: Malme-3M
[44] = tested on: SN12C
[45] = tested on: SW-620
[46] = tested on: A498
[47] = tested on: NCI-H226
[48] = tested on: RPMI-8226
[49] = tested on: SNB-78
[50] = tested on: SK-MEL-5
[51] = tested on: RXF 393
[52] = tested on: NCI-H460
[53] = tested on: UO-31
[54] = tested on: K562
[55] = tested on: LOX IMVI
[56] = tested on: DU-145
[57] = tested on: MDA-MB-231
[58] = tested on: NCI/ADR-RES
[59] = tested on: T47D
[60] = tested on: OVCAR-3
[61] = tested on: CCRF-CEM

With `Brc1ccc(N2C[N+](c3ccc(Br)cc3)=NC(c3ccccc3)=N2)cc1.[O-][Cl+3]([O-])([O-])[O-]` the GI50 [1] was > 100 µM (inactive), the GI50 [2] was 45.2 µM (inactive) and the GI50 [3] was > 100 µM (inactive). For the same compound, the GI50 [4] was > 100 µM (inactive), the GI50 [5] was > 100 µM (inactive) and the GI50 [6] was 46.9 µM (inactive). For the same compound, the GI50 [7] was 99.3 µM (inactive), the GI50 [8] was 36 µM (inactive) and the GI50 [9] was 36.7 µM (inactive). For the same compound, the GI50 [10] was 49.2 µM (inactive), the GI50 [11] was > 100 µM (inactive) and the GI50 [12] was 43 µM (inactive). The GI50 [13] was > 100 µM (inactive), the GI50 [14] was 50.1 µM (inactive) and the GI50 [15] was 30.3 µM (inactive). The GI50 [16] was > 100 µM (inactive), the GI50 [17] was 74.1 µM (inactive) and the GI50 [18] was 58.3 µM (inactive). The GI50 [19] was 59.8 µM (inactive), the GI50 [20] was > 100 µM (inactive) and the GI50 [21] was 63.4 µM (inactive). For the same compound, the GI50 [22] was 70.5 µM (inactive), the GI50 [23] was over 100 µM and the GI50 [24] was > 100 µM (inactive). The GI50 [25] was > 100 µM (inactive), the GI50 [26] was 75.9 µM (inactive) and the GI50 [27] was > 100 µM (inactive). The GI50 [28] was > 100 µM (inactive), the GI50 [29] was > 100 µM (inactive) and the GI50 [30] was 77.1 µM (inactive). The GI50 [31] was > 100 µM (inactive), the GI50 [32] was > 100 µM (inactive) and the GI50 [33] was > 100 µM (inactive). For the same compound, the GI50 [34] was > 100 µM (inactive), the GI50 [35] was > 100 µM (inactive) and the GI50 [36] was 29.4 µM (inactive). The GI50 [37] was 33.9 µM (inactive), the GI50 [38] was > 100 µM (inactive) and the GI50 [39] was 46.6 µM (inactive). For the same compound, the GI50 [40] was > 100 µM (inactive), the GI50 [41] was 50.2 µM (inactive) and the GI50 [42] was 25.1 µM (inactive). For the same compound, the GI50 [43] was > 100 µM (inactive), the GI50 [44] was > 100 µM (inactive) and the GI50 [45] was > 100 µM (inactive). For the same compound, the GI50 [46] was > 100 µM (inactive), the GI50 [47] was > 100 µM (inactive) and the GI50 [48] was 49.9 µM (inactive). The GI50 [49] was > 100 µM (inactive), the GI50 [50] was 76.4 µM (inactive) and the GI50 [51] was > 100 µM (inactive). For the same compound, the GI50 [52] was > 100 µM (inactive), the GI50 [53] was > 100 µM (inactive) and the GI50 [54] was 31.3 µM (inactive).
In the case of `NC(CN(O)N=O)C(=O)O` (stereo not given), the GI50 [1] is reported as 12.2 µM (inactive), the GI50 [3] is reported as 5.22 µM (inactive) and the GI50 [9] is reported as 9.23 µM (inactive). For the same compound, the GI50 [12] was 20.1 µM (inactive), the GI50 [13] was 8.57 µM (inactive) and the GI50 [14] was 0.817 µM (active). For the same compound, the GI50 [15] was 9.4 µM (inactive), the GI50 [19] was 1.04 µM (active) and the GI50 [55] was 0.267 µM (active). For the same compound, the GI50 [56] was 135 µM (inactive), the GI50 [22] was 19 µM (inactive) and the GI50 [24] was 5.71 µM (inactive). For the same compound, the GI50 [25] was 331 µM (inactive), the GI50 [26] was 0.202 µM (active) and the GI50 [31] was 0.472 µM (active). For the same compound, the GI50 [34] was 14.1 µM (inactive), the GI50 [36] was 5.01 µM (inactive) and the GI50 [39] was 95.9 µM (inactive). For the same compound, the GI50 [41] was 1.85 µM (inactive), the GI50 [57] was 55.7 µM (inactive) and the GI50 [42] was 0.309 µM (active). For the same compound, the GI50 [43] was 54.5 µM (inactive), the GI50 [58] was 17.1 µM (inactive) and the GI50 [59] was 157 µM (inactive). The GI50 [49] was 21.8 µM (inactive).
With `NC(=S)N/N=C1\CC(c2ccccc2)Nc2ccccc21` (stereo not given) the GI50 [1] was 41.6 µM (inactive), the GI50 [2] was 33.8 µM (inactive) and the GI50 [5] was 39.1 µM (inactive). For the same compound, the GI50 [6] was 30.2 µM (inactive), the GI50 [7] was 40.1 µM (inactive) and the GI50 [8] was 25.2 µM (inactive). The GI50 [9] was 17.2 µM (inactive), the GI50 [11] was 71.8 µM (inactive) and the GI50 [12] was 22.6 µM (inactive). The GI50 [13] was 41.7 µM (inactive), the GI50 [14] was 32.3 µM (inactive) and the GI50 [15] was 11 µM (inactive). For the same compound, the GI50 [60] was 40.3 µM (inactive), the GI50 [16] was 40.8 µM (inactive) and the GI50 [18] was 42.1 µM (inactive). The GI50 [19] was 35.2 µM (inactive), the GI50 [20] was 66.7 µM (inactive) and the GI50 [55] was 34.2 µM (inactive). For the same compound, the GI50 [21] was 28.1 µM (inactive), the GI50 [22] was 18.5 µM (inactive) and the GI50 [23] was 28.6 µM. The GI50 [24] was 6.76 µM (inactive), the GI50 [25] was 54.6 µM (inactive) and the GI50 [28] was 39.6 µM (inactive). The GI50 [29] was 34.3 µM (inactive), the GI50 [30] was 16.4 µM (inactive) and the GI50 [32] was 40.1 µM (inactive). The GI50 [33] was 42.7 µM (inactive), the GI50 [34] was 39.4 µM (inactive) and the GI50 [36] was 60.3 µM (inactive). The GI50 [37] was 55.7 µM (inactive), the GI50 [38] was 16.6 µM (inactive) and the GI50 [41] was 46.3 µM (inactive). The GI50 [61] was 29.6 µM (inactive), the GI50 [42] was 23.4 µM (inactive) and the GI50 [43] was 27.6 µM (inactive). The GI50 [44] was 48.1 µM (inactive), the GI50 [45] was 30.7 µM (inactive) and the GI50 [46] was 18.5 µM (inactive). For the same compound, the GI50 [47] was 39 µM (inactive), the GI50 [48] was 27.1 µM (inactive) and the GI50 [49] was 68.9 µM (inactive). For the same compound, the GI50 [50] was 19.5 µM (inactive), the GI50 [52] was 32.7 µM (inactive) and the GI50 [53] was 24.5 µM (inactive). For the same compound, the GI50 [54] was 12.2 µM (inactive).
